Reference: publication PMC10458721, “Monitoring Both Extended and Tryptic Forms of Stable Isotope-Labeled Standard Peptides Provides an Internal Quality Control of Proteolytic Digestion in Targeted Mass Spectrometry-Based Assays” (Molecular & Cellular Proteomics : MCP, 2023)

Key:
trypsin [1] = molecular target: T1, trypsin (Sus scrofa, UniProt P00761); assay: Apparent first order hydrolysis of extended SIS peptides (kobs, half-life, time to 75% and 95% hydrolyzed); assay type: in vitro ADME; design: purchased Promega V5111; conditions: for Observed rate constant (slope of linear regression of Ln(A,t/A,0) over time): trypsin digestion time course, direct-MRM
T1 sequence (P00761 9-231): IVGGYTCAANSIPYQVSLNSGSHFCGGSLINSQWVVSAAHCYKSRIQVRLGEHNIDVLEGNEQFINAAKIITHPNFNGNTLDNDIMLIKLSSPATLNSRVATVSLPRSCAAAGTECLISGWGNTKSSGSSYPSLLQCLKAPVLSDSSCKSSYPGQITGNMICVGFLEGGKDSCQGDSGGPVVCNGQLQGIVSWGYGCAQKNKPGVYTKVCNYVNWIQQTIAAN
Experimental: By plotting the natural log as a function of time, or ln(At/A0)∼t, with At and A0 reported as the average peak area of hE from process triplicates at time t and time zero, respectively, a linear fit was calculated and kobs was reported as the slope of the fit (supplemental Table S9). […] Hydrolysis or disappearance of extended SIS peptides across both assays were categorized as fast, medium, slow, or pre-digested by Lys-C (not included in plot) by rate constants calculated using apparent first order kinetics. […] MRM, multiple reaction monitoring; SIS, stable isotope-labeled standard.

trypsin [2] = molecular target: T1, trypsin; assay: hE/hT QC metric of proteolytic digestion (pass/marginal/fail); design: purchased Promega V5111; conditions: QC panel SIS pairs, 0 to 21 h, three replicates, versus 16-h control digestion
Source text: We next compared the utility of the peak area of hT and the ratio of hE/hT as a QC metric to monitor trypsin digestion efficiency. Measurements from the triplicate control digestion samples were used to define the acceptability criteria for the QC metric. A QC pass was defined as an hT value or hE/hT ratio within 2 SD of the median. A marginal QC was defined as a value that was less than three SD but more than two SD greater than the median. Finally, a QC failure was defined as a value that was three SDs greater than the median. We then tested the ability of the QC metric, as defined by either the hE/hT ratio or hT alone, to detect a loss of assay sensitivity, defined as the endogenous peak area in the stressed condition as a fraction of the control. There were 23 targets (15 for the direct-MRM assay, 8 for the immuno-MRM assay) that had endogenous measurements above the LLOQ in the control digestions and also had extended peptides that were not categorized as ‘pre-digested’.
Finally, to ensure the hE/hT QC metric was not subject to day-to-day variability, we excluded any SIS pairs that failed QC across our replicate, 16-h control digestions (one in the stressor experiment and one in the time course experiment). […]

[3] = fit with R2 > 0.80, min 3-4 time points
[4] = fit with R2 > 0.80, time points chosen to maximize R2 (minimum 4 points)

Row | Substance | Observed rate constant (slope of linear regression of Ln(A,t/A,0) over time) (trypsin [1]; [3]) [min⁻¹] | Observed rate constant (slope of linear regression of Ln(A,t/A,0) over time) (trypsin [1]; [4]) [min⁻¹] | other results
1 | AATC[+57]SKYTELPYGREDVLKE | – | – | Half-life of extended SIS peptide (trypsin [1]; direct-MRM trypsin digestion time course, from observed rate constant): 31.34 min
2 | GEEDNSLSVR[+10] | – | – | hE/hT QC result in trypsin digestion time course (trypsin [2]): inconsistent QC results across the three replicates prior to the last time point
3 | KHRTGDEITYQC[+57]RNGF [CFH_P08603_1752] | – | -0.0473 | –
4 | YTELPYGR[+10] | – | – | hE/hT QC result in trypsin digestion time course (trypsin [2]): pass QC, then fail (or marginally pass) the QC at the latest time point

The next lines start with results.

Row | Observed rate constant (slope of linear regression of Ln(A,t/A,0) over time) (trypsin [1]; [3]) [min⁻¹] | Observed rate constant (slope of linear regression of Ln(A,t/A,0) over time) (trypsin [1]; [4]) [min⁻¹] | Substance | other results
5 | -0.0217 | – | DEVIKEVQEFYKDTYNK [CD9_P21926_1751] | –
6 | -0.0308 | – | DSFRFGAPPHAGGGIGLERVTML [DARS_P14868_1752] | –
7 | -0.1677 | – | DTKSDIIFFQRSVP [IL18_Q14116_1752] | –
8 | -0.0481 | – | EEMEKVLAGETLSVNDPPDVLDRQK [ILF3_Q12906_GO] | –
9 | – | -0.0388 | IERTFHVETPEEREEW [AKT1_P31749_1751] | –
10 | – | -0.0813 | IQVGRNIIHGSDSVESAEKEIGLWF [NME1_P15531_1753] | –
